This note sets out measurements from patent US20250325552A1, “SUBSTITUTED THIADIAZOLYL DERIVATIVES AS DNA POLYMERASE THETA INHIBITORS” (IDEAYA Biosciences, Inc., priority 2020, published 2025).

SMILES strings stand for the structures.

This test deals with Polθ theta (1-899) (hPolQ) (Homo sapiens (Human), UniProt O75417). The test is described as follows: Biological Assay 1: Polθ ATPase activity, NADH oxidation-coupled enzymatic assay (10 nM enzyme, 30 min). It is filed as biochemical. Conditions: Polθ (1-899) 10 nM, 100 μM ATP, 300 nM dT50 ssDNA; Examples 1 to 268; read-out: ATPase NADH coupling:Standard Screening:hPolQ IC50. Put shortly: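 Polθ (1-899) at 10 nM was preincubated with compound for 15 min at room temperature in 20 mM Tris pH 7.80, 80 mM KCl, 10 mM MgCl2. An equal volume of 100 μM ATP, 300 nM dT50 ssDNA and a PK/LDH–NADH coupling system was then added. A340 was read each minute for 30 min. IC50 came from rate slopes over 10-point series with a four-parameter fit.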
Polθ theta (1-899) (hPolQ), sequence (O75417 1-899): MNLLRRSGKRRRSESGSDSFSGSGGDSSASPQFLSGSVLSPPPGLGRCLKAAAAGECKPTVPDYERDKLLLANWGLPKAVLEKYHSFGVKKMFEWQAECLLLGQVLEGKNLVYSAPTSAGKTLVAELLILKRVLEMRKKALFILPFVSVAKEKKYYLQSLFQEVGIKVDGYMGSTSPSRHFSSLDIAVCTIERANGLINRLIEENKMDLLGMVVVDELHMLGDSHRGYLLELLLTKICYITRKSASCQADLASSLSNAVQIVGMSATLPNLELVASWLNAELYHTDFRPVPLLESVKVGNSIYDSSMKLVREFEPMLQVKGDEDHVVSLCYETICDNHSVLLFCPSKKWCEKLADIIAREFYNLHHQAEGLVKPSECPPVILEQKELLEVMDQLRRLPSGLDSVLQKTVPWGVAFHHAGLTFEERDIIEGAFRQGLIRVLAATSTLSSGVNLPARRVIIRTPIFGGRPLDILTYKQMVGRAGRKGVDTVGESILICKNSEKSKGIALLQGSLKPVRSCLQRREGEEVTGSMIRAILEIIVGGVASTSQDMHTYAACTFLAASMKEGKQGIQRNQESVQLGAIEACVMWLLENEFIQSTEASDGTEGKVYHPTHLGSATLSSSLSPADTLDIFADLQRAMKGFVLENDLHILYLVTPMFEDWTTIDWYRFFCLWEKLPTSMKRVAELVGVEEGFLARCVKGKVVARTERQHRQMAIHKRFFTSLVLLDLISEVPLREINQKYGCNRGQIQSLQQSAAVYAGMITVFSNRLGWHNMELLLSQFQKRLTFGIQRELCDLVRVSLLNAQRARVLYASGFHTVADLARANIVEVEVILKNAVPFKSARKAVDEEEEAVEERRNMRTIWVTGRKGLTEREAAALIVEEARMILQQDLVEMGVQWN

As usually defined, the IC50 is the concentration that gives 50% inhibition. In the case of `COc1cnc(Cl)cc1-c1cc(C)ncc1C(=O)Nc1nnc(OCC23CCC(O)(CC2)C3)s1` [Example 218, 2′-chloro-N-(5-((4-hydroxybicyclo(2.2.1)heptan-1-yl)methoxy)-1,3,4-thiadiazol-2-yl)-5′-methoxy-6-methyl-(4,4′-bipyridine)-3-carboxamide], the IC50 was at most 200 nM.

As to `COc1cnc(Cl)cc1-c1cc(C)ncc1C(=O)Nc1nnc(OCC2CS(=O)(=O)C2)s1` [Example 166, 2′-chloro-N-(5-((1,1-dioxidothietan-3-yl)methoxy)-1,3,4-thiadiazol-2-yl)-5′-methoxy-6-methyl-(4,4′-bipyridine)-3-carboxamide], the IC50 was at most 200 nM.

As for `COc1ccccc1-c1cc(C)ncc1C(=O)Nc1nnc(OCc2ccc(C3(CO)CC3)cn2)s1` [Example 7, N-(5-((5-(1-(hydroxymethyl)cyclopropyl)pyridin-2-yl)methoxy)-1,3,4-thiadiazol-2-yl)-4-(2-methoxyphenyl)-6-methylnicotinamide], the concentration for half-maximal inhibition (IC50) was at most 200 nM.

With `COc1cnc(C)cc1-c1cc(C)ncc1C(=O)Nc1nnc(OC[C@H]2CC[C@H](O)CC2)s1` [Example 100, N-(5-(((1r,4r)-4-hydroxycyclohexyl)methoxy)-1,3,4-thiadiazol-2-yl)-5′-methoxy-2′,6-dimethyl-[4,4′-bipyridine]-3-carboxamide], the IC50 was at most 200 nM.

As to `COc1cccc(F)c1-c1cc(C)ncc1C(=O)Nc1nnc(OCc2ccc3c(n2)CCCC3O)s1` (racemic) [Example 92, 4-(2-fluoro-6-methoxyphenyl)-N-(5-((5-hydroxy-5,6,7,8-tetrahydroquinolin-2-yl)methoxy)-1,3,4-thiadiazol-2-yl)-6-methylnicotinamide], the IC50 was at most 200 nM.

Consider `COc1ccc(C)cc1-c1cc(C)ncc1C(=O)Nc1nnc(OCc2cnc(CO)cn2)s1` [Example 134, N-(5-((5-(hydroxymethyl)pyrazin-2-yl)methoxy)-1,3,4-thiadiazol-2-yl)-4-(2-methoxy-5-methylphenyl)-6-methylpyridine-3-carboxamide], for which the IC50 is at most 200 nM.

Take `COc1cnc(Cl)cc1-c1cc(C)ncc1C(=O)Nc1nnc(OCc2cnc(CO)cn2)s1` [Example 145, 2′-chloro-N-(5-((5-(hydroxymethyl)pyrazin-2-yl)methoxy)-1,3,4-thiadiazol-2-yl)-5′-methoxy-6-methyl-(4,4′-bipyridine)-3-carboxamide]: the IC50 is at most 200 nM.

Turning to `Cc1cc(-c2c(F)cccc2OC(F)F)c(C(=O)Nc2nnc(OCc3ccc(CO)cn3)s2)cn1` [Example 25, 4-(2-(difluoromethoxy)-6-fluorophenyl)-N-(5-((5-(hydroxymethyl)pyridin-2-yl)methoxy)-1,3,4-thiadiazol-2-yl)-6-methylnicotinamide], the IC50 was at most 200 nM.

In the case of `COc1cnc(Cl)cc1-c1cc(C)ncc1C(=O)Nc1nnc(OCC2CNC2)s1` [Example 173, N-(5-(azetidin-3-ylmethoxy)-1,3,4-thiadiazol-2-yl)-2′-chloro-5′-methoxy-6-methyl-(4,4′-bipyridine)-3-carboxamide], the IC50 is 1000 to 10000 nM.

Regarding `COc1ccccc1-c1cc(C)ncc1C(=O)Nc1nnc(OC[C@H](O)c2ccc(Cl)cn2)s1` [Example 27, (R)—N-(5-(2-(5-chloropyridin-2-yl)-2-hydroxyethoxy)-1,3,4-thiadiazol-2-yl)-4-(2-methoxyphenyl)-6-methylnicotinamide], the IC50 was 200 to 500 nM.

In the case of `COc1cnc(C)c(F)c1-c1cc(C)ncc1C(=O)Nc1nnc(OCC23CCC(O)(CC2)C3)s1` [Example 217, 3′-fluoro-N-(5-((4-hydroxybicyclo(2.2.1)heptan-1-yl)methoxy)-1,3,4-thiadiazol-2-yl)-5′-methoxy-2′,6-dimethyl-(4,4′-bipyridine)-3-carboxamide], the IC50 was at most 200 nM.

`COc1cnc(Cl)cc1-c1cc(C)ncc1C(=O)Nc1nnc(OC[C@H]2CC[C@@H](O)CC2)s1` [Example 128, 2′-chloro-N-(5-(((1s,4s)-4-hydroxycyclohexyl)methoxy)-1,3,4-thiadiazol-2-yl)-5′-methoxy-6-methyl-[4,4′-bipyridine]-3-carboxamide]: the concentration for half-maximal inhibition (IC50) is at most 200 nM.

Consider `COc1cccc(F)c1-c1cc(C)ncc1C(=O)Nc1nnc(OCc2ccc([C@@H](C)O)cn2)s1` [Example 41, 4-(2-fluoro-6-methoxyphenyl)-N-(5-((5-((R)-1-hydroxyethyl)pyridin-2-yl)methoxy)-1,3,4-thiadiazol-2-yl)-6-methylnicotinamide], for which the half-inhibitory concentration (IC50) is at most 200 nM.

For the compound `COc1cnc(C)c(F)c1-c1cc(C)ncc1C(=O)Nc1nnc(OC[C@H]2CCOC2)s1` [Example 249, 3′-fluoro-5′-methoxy-2′,6-dimethyl-N-(5-(((S)-tetrahydrofuran-3-yl)methoxy)-1,3,4-thiadiazol-2-yl)-(4,4′-bipyridine)-3-carboxamide], the IC50 was at most 200 nM.

As for `COc1cnc(Cl)cc1-c1cc(C)ncc1C(=O)Nc1nnc(OCC2COC3(CCC3)C2)s1` (centres unmarked) [Example 224, N-(5-((5-oxaspiro(3.4)octan-7-yl)methoxy)-1,3,4-thiadiazol-2-yl)-2′-chloro-5′-methoxy-6-methyl-(4,4′-bipyridine)-3-carboxamide], the IC50 is at most 200 nM.

On to `COc1cnc(Cl)cc1-c1cc(C)ncc1C(=O)Nc1nnc(OCC2CCOC2)s1` (racemic) [Example 167, 2′-chloro-5′-methoxy-6-methyl-N-(5-((tetrahydrofuran-3-yl)methoxy)-1,3,4-thiadiazol-2-yl)-(4,4′-bipyridine)-3-carboxamide], for which the IC50 is at most 200 nM.

In the case of `COc1cnc(Cl)cc1-c1cc(COC2CC2)ncc1C(=O)Nc1nnc(OC[C@H]2CC[C@H](O)CC2)s1` [Example 232, 2′-chloro-6-(cyclopropoxymethyl)-N-(5-(((1r,4r)-4-hydroxycyclohexyl)methoxy)-1,3,4-thiadiazol-2-yl)-5′-methoxy-(4,4′-bipyridine)-3-carboxamide], the IC50 was at most 200 nM.

For the compound `COc1cnc(Cl)cc1-c1cc(C)ncc1C(=O)Nc1nnc(OCC2COC(C)(C)C2)s1` (stereo in doubt) [Example 189, (S)-2′-chloro-N-(5-((5,5-dimethyltetrahydrofuran-3-yl)methoxy)-1,3,4-thiadiazol-2-yl)-5′-methoxy-6-methyl-(4,4′-bipyridine)-3-carboxamide], the IC50 is at most 200 nM.

`COc1cccc(F)c1-c1cc(C)ncc1C(=O)Nc1nnc(OCc2ccc(S(C)(=N)=O)cc2)s1` (racemic) [Example 79, 4-(2-fluoro-6-methoxyphenyl)-6-methyl-N-(5-((4-(S-methylsulfonimidoyl)benzyl)oxy)-1,3,4-thiadiazol-2-yl)nicotinamide]: the IC50 is at most 200 nM.

Consider `COc1cnc(Cl)cc1-c1cc(C)ncc1C(=O)Nc1nnc(OC[C@@H]2CCOC2(C)C)s1` (single isomer, unassigned) [Example 191], for which the IC50 was at most 200 nM.

For `COc1cccc(F)c1-c1cc(C)ncc1C(=O)Nc1nnc(OCc2ccc(C(C)(C)O)cn2)s1` [Example 33, 4-(2-fluoro-6-methoxyphenyl)-N-(5-((5-(2-hydroxypropan-2-yl)pyridin-2-yl)methoxy)-1,3,4-thiadiazol-2-yl)-6-methylnicotinamide], the IC50 was at most 200 nM.

Take `COc1ccccc1-c1cc(C)ncc1C(=O)Nc1nnc(OCc2ccc(C3(C(=O)O)CC3)cn2)s1` [compound 4, 1-(6-(((5-(4-(2-methoxyphenyl)-6-methylnicotinamido)-1,3,4-thiadiazol-2-yl)oxy)methyl)pyridin-3-yl)cyclopropane-1-carboxylic acid]: the IC50 is at most 200 nM.

In the case of `COc1ccccc1-c1cnccc1C(=O)Nc1nnc(OCCC2(C#N)CC2)s1` [Example 192, N-(5-(2-(1-cyanocyclopropyl)ethoxy)-1,3,4-thiadiazol-2-yl)-3-(2-methoxyphenyl)pyridine-4-carboxamide], the IC50 lay in the range of 1000 to 10000 nM.

In the case of `COc1ccccc1-c1cc(C)ncc1C(=O)Nc1nnc(OCc2cccc(CO)n2)s1` [Example 6, N-(5-((6-(hydroxymethyl)pyridin-2-yl)methoxy)-1,3,4-thiadiazol-2-yl)-4-(2-methoxyphenyl)-6-methylpyridine-3-carboxamide], the IC50 is at most 200 nM.

Turning to `COc1cnc(Cl)cc1-c1cc(C)ncc1C(=O)Nc1nnc(OCC2(F)CC2)s1` [Example 198, 2′-chloro-N-(5-((1-fluorocyclopropyl)methoxy)-1,3,4-thiadiazol-2-yl)-5′-methoxy-6-methyl-(4,4′-bipyridine)-3-carboxamide], the IC50 was at most 200 nM.

As for `COc1ccc(Cl)cc1-c1cc(C)ncc1C(=O)Nc1nnc(OCc2cnc(CO)cn2)s1` [Example 133, 4-(5-chloro-2-methoxyphenyl)-N-(5-((5-(hydroxymethyl)pyrazin-2-yl)methoxy)-1,3,4-thiadiazol-2-yl)-6-methylpyridine-3-carboxamide], the IC50 was at most 200 nM.

With `COc1cnc(Cl)cc1-c1cc(C)ncc1C(=O)Nc1nnc(OCC2CCN(C)CC2)s1` [Example 178, 2′-chloro-5′-methoxy-6-methyl-N-(5-((1-methylpiperidin-4-yl)methoxy)-1,3,4-thiadiazol-2-yl)-(4,4′-bipyridine)-3-carboxamide], the IC50 lay in the range of 200 to 500 nM.

As to `COc1cccc(F)c1-c1cn2ncc(C)c2cc1C(=O)Nc1nnc(OC[C@H]2CC[C@H](O)CC2)s1` [Example 194, 6-(2-fluoro-6-methoxyphenyl)-N-(5-(((1r,4r)-4-hydroxycyclohexyl)methoxy)-1,3,4-thiadiazol-2-yl)-3-methylpyrazolo(1,5-a)pyridine-5-carboxamide], the IC50 is 1000 to 10000 nM.

For `Cc1cc(-c2ccnc(Cl)c2)c(C(=O)Nc2nnc(OCc3ccc(C(C)(C)O)cn3)s2)cn1` [Example 73, 2′-chloro-N-(5-((5-(2-hydroxypropan-2-yl)pyridin-2-yl)methoxy)-1,3,4-thiadiazol-2-yl)-6-methyl-(4,4′-bipyridine)-3-carboxamide], the IC50 is at most 200 nM.
